Data: patent US20090104154A1, “Composition and method for killing of tumours” (COMMONWEALTH SCIENTIFIC AND INDUSTRIAL RESEARCH ORGANISATION, priority 2002, published 2009)

Tests used:
[1] = cited from earlier work
PC3 tumours = assay: GDEPT on subcutaneous human PC3 tumours in nude mice; assay type: in vivo, mouse
Protocol: The ability of the PNP-based GDEPT system to suppress tumour growth in vivo was tested using subcutaneous human PC3 tumours grown in nude mice. Once the tumours were established (see example 1), on day 0 two groups of mice received one intratumoural injection of 1×10^10 VP of OAdV220. Two further groups received virus storage buffer only. Following this treatment all animals in one of the virus groups and all animals in one of the no-virus groups received a daily intraperitoneal (ip) injection of fludarabine (75 mg/m^2/day) for the next five days. Animal weights and tumour volumes were recorded twice weekly. The vector only group was compared to the nil virus, nil prodrug group. The group that received vector plus fludarabine was compared with the group that received fludarabine only. The OAdV220 vector alone caused a 30% reduction in tumour growth. However, the overall tumour growth suppression was increased to 71% when virus was used in conjunction with Fludarabine.
The cut off for response was arbitrarily taken as a tumour volume of 600 mm^3, half the maximum tumour volume (1200 mm^3) allowed before mice had to be culled because of tumour burden. By day 25, 13 of 14 tumours treated with OAdV220 plus fludarabine were in the responder category compared with 6 of 9 that received fludarabine only, and 9 of 12 which received virus only. […]

RM-1 tumours = assay: GDEPT on subcutaneous tumours from RM-1 cells pre-transduced in vitro; assay type: in vivo, mouse; details: day 15; Fludarabine alone 600 mg/m^2/day compared with nil treatment
Protocol: RM-1 cells (3×10^7) were transduced in culture with 1×10^3 or 1×10^2 VP/cell of OAdV220 or mock transduced with virus dilution buffer on day −1. On day 0, 12 mice/group were subcutaneously injected with 2.5×10^5 virus- or mock-transduced cells. Fludarabine was then administered from days 1-5 at 600 mg/m^2/day. Tumour volume and animal survival were monitored three times per week. A line of best fit was generated for each treatment curve and the ability to suppress tumour growth or increase animal survival was determined from the days taken to reach the midpoint of tumour growth or animal survival respectively.

[2] = test system: intraprostatic RM-1 tumours; assay: GDEPT ± lipid on intraprostatic RM-1 tumours; assay type: in vivo, mouse; details: day 18; relative to the equivalent non-fludarabine treated tumours; fludarabine 600 mg/m^2/day ip
Protocol: In order to mimic clinical prostate cancer in an immunocompetent animal model, on day 1 RM-1 tumours were established in the prostate of C57BL/6 mice by intraprostatic injection of 5×10^3 RM-1 cells (˜50 μl cell suspension) per mouse. On day 4, these mice received an intraprostatic injection of 1×10^10 VP/tumour of OAdV220, either alone or formulated with 10 μM CS87 (see groups below). Fludarabine was then administered ip at 600 mg/m^2/day to appropriate groups from days 5-10. On day 6, pseudometastases were induced in the lungs by intravenous injection of 2.5×10^5 RM-1 cells (˜50 μl cell suspension) per mouse. Due to the limitations of surgery only 30 intraprostate injections can be performed per day. The experiment was therefore set up on 4 different days, although care was taken not to upset the timing of the experiment. The mice were weighed twice weekly, and sacrificed on day 18. Tissues were harvested for analysis (prostate volume, prostate weights).
Treatment groups were as follows:
Group A OAdV220 alone±fludarabine
Group B Nil treatment (storage buffer)±fludarabine
Group C OAdV220 plus […] CS87±fludarabine
Group D 10 μM CS87 alone±fludarabine

| Structure (SMILES) | potency as a growth inhibitor relative to 6 MP [1] [fold] | responding tumours (tumour volume below 600 mm^3) (PC3 tumours; day 25) | responding tumours (tumour volume below 600 mm^3) (PC3 tumours; day 53) | reduction in mean tumour volume (RM-1 tumours) [%] | decrease in tumour volume [2] [%] | decrease in tumour weight [2] [%] |
| --- | --- | --- | --- | --- | --- | --- |
| Nc1nc(F)nc2nc[nH]c12 [2FA, 2-fluoroadenine] | ~100 | – | – | – | – | – |
| Nc1nc(F)nc2c1ncn2[C@@H]1O[C@H](CO)[C@@H](O)[C@@H]1O [Fludarabine, fludarabine] | – | 6 of 9 | 0/5 | 17 | 12 | 17 |
